In patent US20240000812A1, “PHARMACOLOGICAL AGENTS FOR TREATING CONDITIONS OF THE EYE” (PLEX PHARMACEUTICALS, INC., priority 2020, published 2024):
Where a name gives a salt, the structure may show the parent alone.

Columns and labels:
[1] = system: experimental myopia in guinea pigs; settings: systemic administration; cited from earlier work
[2] = system: experimental myopia in chickens; settings: intravitreal administration; cited from earlier work
COMT = settings: known COMT inhibitors, cited from earlier work
[3] = system: chicks with form deprivation myopia; assay: Form deprivation myopia chick model, scleral proteoglycan synthesis (35SO4 incorporation into glycosaminoglycans); type: in vivo; settings: high (2.25 mM) and low (0.75 mM) dose, 20 ul intravitreal daily for seven days; measured four hours after the final dose
Description: Three compounds (quinpirole, CAP4719, and L-DOPA) were tested in chicks for their effects on scleral proteoglycan synthesis, as a measure of scleral growth, axial elongation and myopia. CAP4719 has the following structure: […]
Form deprivation myopia is induced in the right eyes of 4-5 days old chicks by the application of translucent occluders. […] At the end of the treatment period, chicks are sacrificed, their sclera labelled in organ culture with 35SO4, and scleral proteoglycan synthesis measured by CPC-precipitation of newly synthesized glycosaminoglycans. Radioactivity is measured using scintillation counting, and the amount of radioactivity compared (as CPM) between right and left eyes of all groups of animals by paired t-tests and between different groups using ANOVA. […]
The right eyes were goggled (myopic) and injected with either the high dose, low dose, or vehicle of the CAP4719 compound. Proteoglycan synthesis was measured as the amount of 35SO4 (cpm) incorporated into glycosaminoglycans four hours after the final dose. […]

[4] = system: experimental myopia in rabbits; settings: intravitreal administration of exogenous dopamine; cited from earlier work
bovine lens extracts = assay: UVC/H2O2-induced aggregation of bovine lens extracts; type: biochemical; settings: 7 minutes exposure
From the text: FIG. 2 represents data relating to UVC/H2O2-induced aggregation of bovine lens extracts, as described in Example 4.

## N[C@@H](Cc1ccc(O)c(O)c1)C(=O)O [L-Dopa]
[1]
  Development of experimental myopia: inhibit the development of experimental myopia
[2]
  Development of experimental myopia: inhibit the development of experimental myopia

## O=C(NCCCNC(=O)c1ccc(O)c(O)c1)c1ccc(O)c(O)c1 [Bifunctional inhibitor, N,N′-(propane-1,3-diyl)bis(3,4-dihydroxybenzamide)]
COMT; read-out: IC50 (concentration of the inhibitor that affords a 50% inhibition in the activity of the enzyme, COMT)
  IC50: 300 nM

## O=C(CCN1CCN(c2cccc(C(F)(F)F)c2)CC1)c1cc(O)c(O)c([N+](=O)[O-])c1 [BIA 3-335, 1-(3,4-Dihydroxy-5-nitrophenyl)-3-{4-[3-(trifluoromethyl)phenyl]-1-piperazinyl}-1-propanone dihydrochloride]
COMT
  Ki: 6 nM

## Cc1c(Cl)c(C)[n+]([O-])c(Cl)c1-c1noc(-c2cc(O)c(O)c([N+](=O)[O-])c2)n1 [Opicapone]
COMT
  Ki: 1 nM

## Cc1ccc(C(=O)c2cc(OC(=O)CCCP(=O)([O-])[O-])c(O)c([N+](=O)[O-])c2)cc1.[Na+].[Na+] [CAP4719]
[3]
  Block of the increase in proteoglycan synthesis in the goggled (myopic) right eye: did not completely block the increase in proteoglycan synthesis
  Percentage increase in proteoglycan synthesis over the left (control) eye, compared with the vehicle: appears to be lower

## NCCc1ccc(O)c(O)c1 [dopamine]
[4]
  Development of experimental myopia: inhibit the development of experimental myopia

## Cc1ccc(C(=O)c2cc(O)c(O)c([N+](=O)[O-])c2)cc1 [CAP1160]
Bovine lens extracts
  Prevention of UVC/H2O2-induced aggregation of bovine lens extracts: prevents UVC/H2O2-induced aggregation of bovine lens extracts
